SMILES strings stand for the structures.

What all share (format): cell-based, human
Test [1] deals with RNF43 mRNA, YAPC cells. Put plainly: quantitative RT-PCR gene expression analysis. The following applies: 3 μM of IWP2. The procedure:
FIG. 4(a) is a bar graph showing that the depletion of β-catenin decreases mRNA level of AXIN2 and RNF43. Cells were treated with siRNA, and relative mRNA levels of indicated genes were analyzed by quantitative RT-PCR. […] YAPC cells were treated with 3 μM of IWP2 or 1 μM of LGK974, and subjected to gene expression analysis by quantitative RT-PCR.
(§1) For reverse transcription and quantitative PCR (qPCR), total RNA was extracted from cells or tumors using the RNeasy Plus Mini Kit (Qiagen). 1 μg of RNA were reverse transcribed with Taqman Reverse Transcription Reagents (Applied Biosystems) according to the manufacturer's instruction. Quantitative PCR was performed in 12 μl reactions consisting of 0.6 μl of 20× Taqman probe and PCR primer mix, 6 μl 2× Taqman FAST Advanced Master Mix (Applied Biosystems), and 5.4 μl diluted cDNA template. The thermocycling conditions utilized were 20 seconds at 95° C., followed by 40 cycles of 1 second at 95° C. and 20 seconds at 60° C. All experiments were performed in quadruplicates. Gene expression analysis was performed using the comparative ΔΔCT method and normalized with the housekeeping gene GUSB or 18S. The Taqman probes were purchased from Applied Biosystems.
Consistent with this observation, treatment of Porcupine inhibitor IWP2 or LGK974 increased the cell surface level of Frizzled and decreased the mRNA levels of AXIN2 and RNF43. See, FIG. 4(b). […]

Test [2] has as its system cell surface Frizzled (FZD), YAPC cells. Put plainly: flow cytometry of membrane Frizzled (pan-Frizzled antibody 18R5). As to the method:
YAPC cells were transfected with indicated siRNA, and membrane levels of Frizzled were analyzed by flowcytometry using pan-Frizzled antibody 18R5.
For flow cytometric analysis, cells were harvested using trypsin-free cell dissociation buffer (Invitrogen) and resuspended in FACS buffer (PBS with 1% BSA and 0.02% sodium azide). After blocking, cells were incubated with anti-pan-Frizzled (18R5) antibody for 1 hour at 4° C., followed by incubation with Allophycocyanin (APC)-conjugated goat anti-human IgG secondary antibody. After extensive washes using FACS buffer, cells were stained with propidium iodide (PI) and subjected to multi-channel analysis using BD LSR II flow cytometer.
(§2) Consistent with this observation, treatment of Porcupine inhibitor IWP2 or LGK974 increased the cell surface level of Frizzled and decreased the mRNA levels of AXIN2 and RNF43. See, FIG. 4(b). […] YAPC cells were treated with 3 μM of IWP-2 or 1 μM of LGK974, and subjected to flowcytometry analysis for membrane Frizzled expression.

In test [3] the test system is Axin2, YAPC. Put plainly: Axin2 qPCR assay (pathway inhibition). The following applies: YAPC cells; 3 μM of IWP2. As to the method: as §1, §2
The subject of test [4] is STF Wnt reporter, YAPC-STF cells. Put plainly: SuperTOPFlash (STF) luciferase reporter assay. The following applies: absence of exogenous Wnt3a, LGK974 or IWP-2. The procedure: For the luciferase reporter assay, YAPC-STF reporter cells were transfected with siRNA and treated with Wnt3a conditioned medium or compound where applicable. STF luciferase assays were performed using BrightGlo Luciferase Assay kits (Promega) according to the manufacturer's instructions.
To construct pancreatic cell lines expressing STF reporter, HEK293 cells were grown in medium recommended by ATCC supplemented with 10% FBS. Retrovirus or lentivirus was produced from HEK293 cells by standard virus packaging procedure using FuGENE 6 (Roche) transfection reagent. Pancreatic cell lines expressing STF reporter, RNF43 constructs, or DOX-inducible β-catenin shRNA were generated by viral infection and drug selection.
Depletion of RNF43 induces Dvl phosphorylation and β-catenin stabilization. […] RNF43 siRNA-induced STF activity in the absence of exogenous Wnt3a is inhibited by LGK974 and a previously known Porcupine inhibitor IWP-2. Chen B et al. (2009) Nat. Chem. Biol. 5(2):100-7. See, FIG. 3(b), showing that this activity is dependent on the expression of endogenous Wnt proteins.

As to `Cc1ccc2nc(NC(=O)CSc3nc4c(c(=O)n3-c3ccccc3)SCC4)sc2c1` [IWP-2, reference compound], the “mRNA level of RNF43” value in test [1] was “decreased”. The “Median FZD intensity in FACS” value is given as 1754 in test [2] (3 μM of IWP-2, DMSO 721) and “increased” in test [2] (3 μM of IWP-2, DMSO 721, listed as IWP2). Further, in test [3], the “mRNA level of AXIN2” value is “decreased”. Also, the “RNF43 siRNA-induced STF activity” value in test [4] is on record as “inhibited”.

These data come from patent US20170306409A1, “CANCER PATIENT SELECTION FOR ADMINISTRATION OF WNT SIGNALING INHIBITORS USING RNF43 MUTATION STATUS” (NOVARTIS AG, priority 2012, published 2017).
